Biological target: T1, JAK2 (JH1domain-catalytic, Y1007F,Y1008F) kinase (Homo sapiens, UniProt O60674, Y1007F/Y1008F)
T1 construct: JAK2 (JH1domain-catalytic, Y1007F,Y1008F) kinase was expressed as N-terminal fusion; made in house; host or cells: transiently transfected HEK293 cells
Assay: JAK2 JH1 Domain Binding Assay
Settings: qPCR readout

T1 sequence (O60674 849-1124 Y1007F/Y1008F limits assumed): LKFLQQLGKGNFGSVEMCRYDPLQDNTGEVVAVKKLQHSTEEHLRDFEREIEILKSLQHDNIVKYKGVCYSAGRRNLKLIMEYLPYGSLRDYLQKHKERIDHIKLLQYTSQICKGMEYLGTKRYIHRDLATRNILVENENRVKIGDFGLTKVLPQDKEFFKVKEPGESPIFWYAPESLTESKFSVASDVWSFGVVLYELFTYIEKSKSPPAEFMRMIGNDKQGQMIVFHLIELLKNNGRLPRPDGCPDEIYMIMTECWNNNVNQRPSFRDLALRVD

| Kd [µM] | Structure (SMILES) |
| --- | --- |
| 0.01 to 0.05 | Cn1c(Nc2cc(C(F)(F)F)cn(CCO)c2=O)nc2ncc(Oc3cnn4ccnc(N5CCOCC5)c34)c(Cl)c21 [Example I-140, 3-((7-chloro-1-methyl-6-((4-morpholinopyrazolo[1,5-a]pyrazin-3-yl)oxy)-1H-imidazo[4,5-b]pyridin-2-yl)amino)-1-(2-hydroxyethyl)-5-(trifluoromethyl)pyridin-2(1H)-one] |
| < 0.01 | Cn1c(Nc2cc(C3CC3)cn(CCO)c2=O)nc2ncc(Oc3cnn4cccc(F)c34)c(Cl)c21 [Example I-141, 3-((7-chloro-6-((4-fluoropyrazolo[1,5-a]pyridin-3-yl)oxy)-1-methyl-1H-imidazo[4,5-b]pyridin-2-yl)amino)-5-cyclopropyl-1-(2-hydroxyethyl)pyridin-2(1H)-one] |
| < 0.01 | Cn1c(Nc2cc(C3CC3)nn([C@@H]3CCOC3)c2=O)nc2ncc(Oc3cnn4ccccc34)c(Cl)c21 [Example I-142, (R)-4-((7-chloro-1-methyl-6-(pyrazolo[1,5-a]pyridin-3-yloxy)-1H-imidazo[4,5-b]pyridin-2-yl)amino)-6-cyclopropyl-2-(tetrahydrofuran-3-yl)pyridazin-3(2H)-one] |
| < 0.01 | Cn1c(Nc2cc(C3CC3)nn([C@H]3CCOC3)c2=O)nc2ncc(Oc3cnn4ccccc34)c(Cl)c21 [Example I-143, (S)-4-((7-chloro-1-methyl-6-(pyrazolo[1,5-a]pyridin-3-yloxy)-1H-imidazo[4,5-b]pyridin-2-yl)amino)-6-cyclopropyl-2-(tetrahydrofuran-3-yl)pyridazin-3(2H)-one] |
| < 0.01 | Cn1cc(C(F)(F)C(F)(F)F)cc(Nc2nc3ncc(Oc4cnn5ccncc45)c(Cl)c3n2C)c1=O [Example I-144, 3-((7-chloro-1-methyl-6-(pyrazolo[1,5-a]pyrazin-3-yloxy)-1H-imidazo[4,5-b]pyridin-2-yl)amino)-1-methyl-5-(perfluoroethyl)pyridin-2(1H)-one] |
| 0.01 to 0.05 | Cn1c(Nc2cc(C(=O)NCCN3CCOCC3)cc(C(F)(F)F)c2)nc2ncc(Oc3cnn4ccccc34)c(Cl)c21 [Example I-145, 3-((7-chloro-1-methyl-6-(pyrazolo[1,5-a]pyridin-3-yloxy)-1H-imidazo[4,5-b]pyridin-2-yl)amino)-N-(2-morpholinoethyl)-5-(trifluoromethyl)benzamide] |
| < 0.01 | CCN1CCN(Cc2ccc(Nc3nc4ncc(Oc5cnn6ccncc56)c(Cl)c4n3C)cc2C(F)(F)F)CC1 [Example I-146, 7-chloro-N-(4-((4-ethylpiperazin-1-yl)methyl)-3-(trifluoromethyl)phenyl)-1-methyl-6-(pyrazolo[1,5-a]pyrazin-3-yloxy)-1H-imidazo[4,5-b]pyridin-2-amine] |
| < 0.01 | Cn1c(Nc2ccc(CN3CCOCC3)c(C(F)(F)F)c2)nc2ncc(Oc3cnn4ccncc34)c(Cl)c21 [Example I-149, 7-chloro-1-methyl-N-(4-(morpholinomethyl)-3-(trifluoromethyl)phenyl)-6-(pyrazolo[1,5-a]pyrazin-3-yloxy)-1H-imidazo[4,5-b]pyridin-2-amine] |
| < 0.01 | Cn1c(Nc2cc(C3CC3)cn([C@H]3C[C@@H](O)C3)c2=O)nc2ncc(Oc3cnn4cc(F)ccc34)c(Cl)c21 [Example I-151, cis-3-((7-chloro-6-((6-fluoropyrazolo[1,5-a]pyridin-3-yl)oxy)-1-methyl-1H-imidazo[4,5-b]pyridin-2-yl)amino)-5-cyclopropyl-1-(3-hydroxycyclobutyl)pyridin-2(1H)-one] |
| < 0.01 | Cn1c(Nc2cc(C3CC3)cn([C@H]3C[C@H](O)C3)c2=O)nc2ncc(Oc3cnn4cc(F)ccc34)c(Cl)c21 [Example I-152, trans-3-((7-chloro-6-((6-fluoropyrazolo[1,5-a]pyridin-3-yl)oxy)-1-methyl-1H-imidazo[4,5-b]pyridin-2-yl)amino)-5-cyclopropyl-1-(3-hydroxycyclobutyl)pyridin-2(1H)-one] |
| < 0.01 | COCCOc1ccc2c(Oc3cnc4nc(Nc5cc(C6CC6)nn(CCO)c5=O)n(C)c4c3Cl)cnn2c1 [Example I-153, 4-((7-chloro-6-((6-(2-methoxyethoxy)pyrazolo[1,5-a]pyridin-3-yl)oxy)-1-methyl-1H-imidazo[4,5-b]pyridin-2-yl)amino)-6-cyclopropyl-2-(2-hydroxyethyl)pyridazin-3(2H)-one] |
| < 0.01 | CN1C(=O)c2cc(Nc3nc4ncc(Oc5cnn6ccncc56)c(Cl)c4n3C)cc(C(F)(F)F)c2C1(C)C [Example I-154, 6-((7-chloro-1-methyl-6-(pyrazolo[1,5-a]pyrazin-3-yloxy)-1H-imidazo[4,5-b]pyridin-2-yl)amino)-2,3,3-trimethyl-4-(trifluoromethyl)isoindolin-1-one] |
| < 0.01 | COCCOc1ccc2c(Oc3cnc4nc(Nc5cc(C6CC6)cn(CCO)c5=O)n(C)c4c3Cl)cnn2c1 [Example I-155, 3-((7-chloro-6-((6-(2-methoxyethoxy)pyrazolo[1,5-a]pyridin-3-yl)oxy)-1-methyl-1H-imidazo[4,5-b]pyridin-2-yl)amino)-5-cyclopropyl-1-(2-hydroxyethyl)pyridin-2(1H)-one] |
| < 0.01 | CC(=O)N1CC2(CC(n3nc(Nc4nc5ncc(Oc6cnn7ccncc67)c(Cl)c5n4C)cc3C(F)(F)F)C2)C1 [Example I-156, 1-(6-(3-((7-chloro-1-methyl-6-(pyrazolo[1,5-a]pyrazin-3-yloxy)-1H-imidazo[4,5-b]pyridin-2-yl)amino)-5-(trifluoromethyl)-1H-pyrazol-1-yl)-2-azaspiro[3.3]heptan-2-yl)ethan-1-one] |
| < 0.01 | Cn1c(Nc2cc(C(F)(F)F)cn(-c3cccnc3)c2=O)nc2ncc(Oc3cnn4ccccc34)c(C#N)c21 [Example I-157, 1-methyl-2-((2-oxo-5-(trifluoromethyl)-2H-[1,3′-bipyridin]-3-yl)amino)-6-(pyrazolo[1,5-a]pyridin-3-yloxy)-1H-imidazo[4,5-b]pyridine-7-carbonitrile] |
| < 0.01 | Cn1c(Nc2cc(C(C)(C)C)n([C@H]3C[C@H](O)C3)n2)nc2ncc(Oc3cnn4ccncc34)c(C#N)c21 [Example I-158, trans-2-((5-(tert-butyl)-1-(3-hydroxycyclobutyl)-1H-pyrazol-3-yl)amino)-1-methyl-6-(pyrazolo[1,5-a]pyrazin-3-yloxy)-1H-imidazo[4,5-b]pyridine-7-carbonitrile] |
| < 0.01 | Cn1c(Nc2cc(C(F)(F)F)cn(CCCN3CCOCC3)c2=O)nc2ncc(Oc3cnn4ccccc34)c(C#N)c21 [Example I-159, 1-methyl-2-((1-(3-morpholinopropyl)-2-oxo-5-(trifluoromethyl)-1,2-dihydropyridin-3-yl)amino)-6-(pyrazolo[1,5-a]pyridin-3-yloxy)-1H-imidazo[4,5-b]pyridine-7-carbonitrile] |
| < 0.01 | Cn1c(Nc2cc(C(F)(F)F)cn(CCO)c2=O)nc2ncc(Oc3cnn4ccccc34)c(C#N)c21 [Example I-160, 2-((1-(2-hydroxyethyl)-2-oxo-5-(trifluoromethyl)-1,2-dihydropyridin-3-yl)amino)-1-methyl-6-(pyrazolo[1,5-a]pyridin-3-yloxy)-1H-imidazo[4,5-b]pyridine-7-carbonitrile] |
| < 0.01 | Cn1cc(-n2cc(C(F)(F)F)cc(Nc3nc4ncc(Oc5cnn6cc(F)ccc56)c(Cl)c4n3C)c2=O)cn1 [Example I-161, 3-((7-chloro-6-((6-fluoropyrazolo[1,5-a]pyridin-3-yl)oxy)-1-methyl-1H-imidazo[4,5-b]pyridin-2-yl)amino)-1-(1-methyl-1H-pyrazol-4-yl)-5-(trifluoromethyl)pyridin-2(1H)-one] |
| < 0.01 | Cn1c(Nc2cc(C(F)(F)F)cn([C@H]3C[C@@H](O)C3)c2=O)nc2ncc(Oc3cnn4cc(F)ccc34)c(Cl)c21 [Example I-162, cis-3-((7-chloro-6-((6-fluoropyrazolo[1,5-a]pyridin-3-yl)oxy)-1-methyl-1H-imidazo[4,5-b]pyridin-2-yl)amino)-1-(3-hydroxycyclobutyl)-5-(trifluoromethyl)pyridin-2(1H)-one] |
| < 0.01 | Cn1c(Nc2cc(C(F)(F)F)cn(CCO)c2=O)nc2ncc(Oc3cnn4cc(F)ccc34)c(Cl)c21 [Example I-163, 3-((7-chloro-6-((6-fluoropyrazolo[1,5-a]pyridin-3-yl)oxy)-1-methyl-1H-imidazo[4,5-b]pyridin-2-yl)amino)-1-(2-hydroxyethyl)-5-(trifluoromethyl)pyridin-2(1H)-one] |
| 0.01 to 0.05 | CCn1c(C(C)(C)C)ncc(Nc2nc3ncc(Oc4cnn5ccncc45)c(Cl)c3n2C)c1=O [Example I-164, 2-(tert-butyl)-5-((7-chloro-1-methyl-6-(pyrazolo[1,5-a]pyrazin-3-yloxy)-1H-imidazo[4,5-b]pyridin-2-yl)amino)-3-ethylpyrimidin-4(3H)-one] |
| 1 to 5 | Cn1c(=O)c(Nc2nc3ncc(Oc4cnn5ccncc45)c(Cl)c3n2C)cn(C2CC2)c1=O [Example I-165, 5-((7-chloro-1-methyl-6-(pyrazolo[1,5-a]pyrazin-3-yloxy)-1H-imidazo[4,5-b]pyridin-2-yl)amino)-1-cyclopropyl-3-methylpyrimidine-2,4(1H,3H)-dione] |
| < 0.01 | Cn1cc(C(F)(F)F)cc(Nc2nc3ncc(Oc4cnn5ccc(N6CCOCC6)cc45)c(Cl)c3n2C)c1=O [Example I-166, 3-((7-chloro-1-methyl-6-((5-morpholinopyrazolo[1,5-a]pyridin-3-yl)oxy)-1H-imidazo[4,5-b]pyridin-2-yl)amino)-1-methyl-5-(trifluoromethyl)pyridin-2(1H)-one] |
| < 0.01 | Cn1c(Nc2cc(C(F)(F)F)cn([C@H]3C[C@@H](O)C3)c2=O)nc2ncc(Oc3cnn4ccccc34)c(C#N)c21 [Example I-167, cis-2-((1-(3-hydroxycyclobutyl)-2-oxo-5-(trifluoromethyl)-1,2-dihydropyridin-3-yl)amino)-1-methyl-6-(pyrazolo[1,5-a]pyridin-3-yloxy)-1H-imidazo[4,5-b]pyridine-7-carbonitrile] |
| 0.01 to 0.05 | Cn1c(Nc2cc(C(C)(C)C)n(C3COC3)n2)nc2ncc(Oc3cnn4ccncc34)c(C#N)c21 [Example I-168, 2-((5-(tert-butyl)-1-(oxetan-3-yl)-1H-pyrazol-3-yl)amino)-1-methyl-6-(pyrazolo[1,5-a]pyrazin-3-yloxy)-1H-imidazo[4,5-b]pyridine-7-carbonitrile] |
